Measured values from US20250059172A1, “INDAZOLE COMPOUND AND PHARMACEUTICAL” (NIPPON SHINYAKU CO., LTD., priority 2021, published 2025).
Counter-ions that a name gives are not always drawn.

Assays:
human mPGES-1 = human mPGES-1 (Homo sapiens (Human), UniProt O14684); experiment: mPGES-1 inhibitory activity test; format: biochemical; conditions: microsomes of CHO-K1 cells expressing human mPGES-1, PGH2 1 μM, PGE2 by HTRF; read-out: mPGES-1 inhibition (IC50 nM)
Protocol: mPGES-1 microsomal specimens were prepared by transiently transfecting CHO-K1 cells (DS Pharma Biomedical Co. Ltd) with a plasmid encoding human mPGES-1 cDNA using FuGENE 6 Transfection Reagent (Promega). The prepared mPGES-1 microsome specimens were diluted in potassium phosphate buffer of pH 7.4 comprising 2.5 mM reduced glutathione (Sigma-Aldrich), DMSO solution of a test compound or DMSO was added to a final concentration of 1% of DMSO, and then incubated at 4° C. for 20 minutes. The enzymatic reaction was then initiated by adding a solution of PGH2 (Cayman chemical) substrate of a final concentration 1 μM and incubated at 4° C. for 60 seconds. The reaction was terminated by adding a solution of ferric chloride (STREM CHEMICALS) and citric acid (Wako Pure Chemical Industries) salt to a final concentration of 5 mg/mL and 250 mM, respectively. The formed PGE2 was quantified using the HTRF kit (Cisbio International). Solutions without the test compound were used as positive controls, and solutions without the test compound and microsomal specimens were used as negative controls. 100% activity was defined as production of PGE2 in the positive control minus that in the negative control. The percentage inhibition of production of PGE2 at final concentrations of 10 nM and 100 nM of the test compound was then calculated, or IC50 values were determined using standard methods.

human A549 cells = experiment: Inhibition test of PGE2 production using human A549 cells; format: cell-based; conditions: IL-1β stimulated A549 cells, 24 h, PGE2 by HTRF, read-out: A549 cell inhibition of PGE2 production IC50
Protocol: 100 μL of RPMI medium (Sigma) comprising 10% FBS and human A549 cells was seeded in a 96-well plate to […] cells per well, and incubated overnight. The medium was then removed and washed with phosphate-buffered saline, and added to a DMSO solution of the test compound or RPMI medium comprising 3% FBS with DMSO to a final concentration of 0.1% DMSO. After incubation for 60 minutes, IL-1P (5 ng/well, BioLegend) was added to the solution. After incubation at 37° C. for 24 h, PGE2 in the medium was quantified using the HTRF kit (Cisbio International) and PGF2a was also quantified using the EIA kit (Cayman chemical). Solutions without the test compound were used as positive controls, and solutions without the test compound and IL-1β were used as negative controls. 100% activity was defined as production of PGE2 and PGF2a in the positive control minus those in the negative control. IC50 values were then determined using standard methods.

human mPGES-1, sequence (O14684 whole entry): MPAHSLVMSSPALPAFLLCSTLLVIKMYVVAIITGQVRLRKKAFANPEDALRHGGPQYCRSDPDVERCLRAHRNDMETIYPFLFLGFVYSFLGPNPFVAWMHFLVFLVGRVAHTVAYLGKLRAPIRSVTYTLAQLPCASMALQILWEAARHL

SMILES	IC50 (human mPGES-1) [nM]	IC50 (human A549 cells) [nM]
O=C(Nc1cccc2c1cnn2-c1ccc(C(F)(F)F)cc1)c1cc(CNC(=O)C2(C(F)(F)F)CC2)ccc1Cl [Example 26, 2-Chloro-5-[({[1-(trifluoromethyl)cyclopropyl]carbonyl}amino)methyl]-N-{1-[4-(trifluoromethyl)phenyl]-1H-indazol-4-yl}benzamide]	1.6	2.3
O=C(Nc1cccc2c1cnn2-c1ccc(C(F)(F)F)cc1)c1cc(CNC(=O)C2(O)CC2)ccc1Cl [Example 27]	10	4.4
CC(C)(CO)C(=O)NCc1ccc(Cl)c(C(=O)Nc2cccc3c2cnn3-c2ccc(C(F)(F)F)cc2)c1 [Example 28, 2-Chloro-5-{[(3-hydroxy-2,2-dimethylpropanoyl)amino]methyl}-N-{1-[4-(trifluoromethyl)phenyl]-1H-indazol-4-yl}benzamide]	1.9	5.8
O=C(Nc1cccc2c1cnn2-c1ccc(C(F)(F)F)cc1)c1cc(CNC(=O)C2CCC2)ccc1Cl [Example 29, 2-Chloro-5-{[(cyclobutylcarbonyl)amino]methyl}-N-{1-[4-(trifluoromethyl)phenyl]-1H-indazol-4-yl}benzamide]	4.5	6.7
O=C(Nc1cccc2c1cnn2-c1ccc(C(F)(F)F)cc1)c1cc(CNC(=O)C2CCCC2)ccc1Cl [Example 30, 2-Chloro-5-{[(cyclopentylcarbonyl)amino]methyl}-N-{1-[4-(trifluoromethyl)phenyl]-1H-indazol-4-yl}benzamide]	5.5	2.6
O=C(Nc1cccc2c1cnn2-c1ccc(C(F)(F)F)cc1)c1cc(CNC(=O)C2CCCCC2)ccc1Cl [Example 31, 2-Chloro-5-{[(cyclohexylcarbonyl)amino]methyl}-N-{1-[4-(trifluoromethyl)phenyl]-1H-indazol-4-yl}benzamide]	1.6	5.5
O=C(Nc1cccc2c1cnn2-c1ccc(C(F)(F)F)cc1)c1cc(CNC(=O)C23CC4CC(CC(C4)C2)C3)ccc1Cl [Example 32, N-[4-chloro-3-({1-[4-(trifluoromethyl)phenyl]-1H-indazol-4-yl}carbamoyl)benzyl]tricyclo[3.3.1.1^3,]decane-1-carboxamide]	23	12.1
O=C(Nc1cccc2c1cnn2-c1ccc(C(F)(F)F)cc1)c1cc(CNC(=O)C2CCCO2)ccc1Cl (centres unmarked) [Example 33, N-[4-chloro-3-({1-[4-(trifluoromethyl)phenyl]-1H-indazol-4-yl}carbamoyl)benzyl]-tetrahydrofuran-2-carboxamide]	18	41.4
O=C(Nc1cccc2c1cnn2-c1ccc(C(F)(F)F)cc1)c1cc(CNC(=O)C2CCOC2)ccc1Cl (centres unmarked) [Example 34, N-[4-chloro-3-({1-[4-(trifluoromethyl)phenyl]-1H-indazol-4-yl}carbamoyl)benzyl]-tetrahydrofuran-3-carboxamide]	31	20.7
CN(C)CCC(=O)NCc1ccc(Cl)c(C(=O)Nc2cccc3c2cnn3-c2ccc(C(F)(F)F)cc2)c1 [Example 35, 2-Chloro-5-{[(N,N-dimethyl-p-alanyl)amino]methyl}-N-{1-[4-(trifluoromethyl)phenyl]-1H-indazol-4-yl}benzamide hydrochloride]	116	933
CC(C)(C)OC(=O)N1CCC(C(=O)NCc2ccc(Cl)c(C(=O)Nc3cccc4c3cnn4-c3ccc(C(F)(F)F)cc3)c2)CC1 [Example 36, tert-Butyl 4-{[4-chloro-3-({1-[4-(trifluoromethyl)phenyl]-1H-indazol-4-yl}carbamoyl)benzyl]carbamoyl}piperidine-1-carboxylate]	1.4	1.7
O=C(CC(F)(F)F)NCc1ccc(Cl)c(C(=O)Nc2cccc3c2cnn3-c2ccc(C(F)(F)F)cc2)c1 [Example 37, 2-Chloro-N-{1-[4-(trifluoromethyl)phenyl]-1H-indazol-4-yl}-5-{[(3,3,3-trifluoropropanoyl)amino]methyl}benzamide]	8.9	2.5
O=C(CC1CC1)NCc1ccc(Cl)c(C(=O)Nc2cccc3c2cnn3-c2ccc(C(F)(F)F)cc2)c1 [Example 38, 2-Chloro-5-{[(cyclopropylacetyl)amino]methyl}-N-{1-[4-(trifluoromethyl)phenyl]-1H-indazol-4-yl}benzamide]	5.7	7.5
O=C(Nc1cccc2c1cnn2-c1ccc(C(F)(F)F)cc1)c1cc(CNC(=O)[C@H]2CC[C@H](O)CC2)ccc1Cl [Example 39, 2-Chloro-5-({[trans-(4-hydroxycyclohexyl)carbonyl]amino}methyl)-N-{1-[4-(trifluoromethyl)phenyl]-1H-indazol-4-yl}benzamide]	7.5	5.1
O=C(Nc1cccc2c1cnn2-c1ccc(C(F)(F)F)cc1)c1cc(CNC(=O)[C@H]2CC[C@@H](O)CC2)ccc1Cl [Example 40, 2-Chloro-5-({[cis-(4-hydroxycyclohexyl)carbonyl]amino}methyl)-N-{1-[4-(trifluoromethyl)phenyl]-1H-indazol-4-yl}benzamide]	19.1	60.2
CCC(O)(CC)C(=O)NCc1ccc(Cl)c(C(=O)Nc2cccc3c2cnn3-c2ccc(C(F)(F)F)cc2)c1 [Example 41, 2-Chloro-5-{[(2-ethyl-2-hydroxybutanoyl)amino]methyl}-N-{1-[4-(trifluoromethyl)phenyl]-1H-indazol-4-yl}benzamide]	1	13.7
CCCC(=O)NCc1ccc(Cl)c(C(=O)Nc2cccc3c2cnn3-c2ccc(C(F)(F)F)cc2)c1 [Example 43, 5-[(Butanoylamino)methyl]-2-chloro-N-{1-[4-(trifluoromethyl)phenyl]-1H-indazol-4-yl}benzamide]	2.3	13.5
O=C(Cc1ccccc1)NCc1ccc(Cl)c(C(=O)Nc2cccc3c2cnn3-c2ccc(C(F)(F)F)cc2)c1 [Example 44, 2-Chloro-5-{[(phenylacetyl)amino]methyl}-N-{1-[4-(trifluoromethyl)phenyl]-1H-indazol-4-yl}benzamide]	7.2	151
O=C(NCc1ccc(Cl)c(C(=O)Nc2cccc3c2cnn3-c2ccc(C(F)(F)F)cc2)c1)c1ccco1 [Example 45, N-[4-chloro-3-({1-[4-(trifluoromethyl)phenyl]-1H-indazol-4-yl}carbamoyl)benzyl]furan-2-carboxamide]	1.2	37.6
O=C(CC1CCCC1)NCc1ccc(Cl)c(C(=O)Nc2cccc3c2cnn3-c2ccc(C(F)(F)F)cc2)c1 [Example 46, 2-Chloro-5-{[(cyclopentylacetyl)amino]methyl}-N-{1-[4-(trifluoromethyl)phenyl]-1H-indazol-4-yl}benzamide]	3	14.3
COCCC(=O)NCc1ccc(Cl)c(C(=O)Nc2cccc3c2cnn3-c2ccc(C(F)(F)F)cc2)c1 [Example 47, 2-Chloro-5-{[(3-methoxypropanoyl)amino]methyl}-N-{1-[4-(trifluoromethyl)phenyl]-1H-indazol-4-yl}benzamide]	8	8.5
COc1ccc(-n2ncc3c(NC(=O)c4cc(CNC(=O)C(C)(C)C)ccc4Cl)cccc32)cc1 [Example 48, 2-Chloro-5-{[(2,2-dimethylpropanoyl)amino]methyl}-N-[1-(4-methoxyphenyl)-1H-indazol-4-yl]benzamide]	3.3	4
COc1cccc(-n2ncc3c(NC(=O)c4cc(CNC(=O)C(C)(C)C)ccc4Cl)cccc32)c1 [Example 49, 2-Chloro-5-{[(2,2-dimethylpropanoyl)amino]methyl}-N-[1-(3-methoxyphenyl)-1H-indazol-4-yl]benzamide]	9.9	0.9
CC(C)(C)C(=O)NCc1ccc(Cl)c(C(=O)Nc2cccc3c2cnn3-c2ccc(C(F)(F)F)cc2)c1 [Example 50, 2-Chloro-5-{[(2,2-dimethylpropanoyl)amino]methyl}-N-{1-[4-(trifluoromethyl)phenyl]-1H-indazol-4-yl}benzamide]	14.7	3.5
CC(C)(C)C(=O)NCc1ccc(Cl)c(C(=O)Nc2cccc3c2cnn3-c2ccc(OC(F)(F)F)cc2)c1 [Example 51, 2-Chloro-5-{[(2,2-dimethylpropanoyl)amino]methyl}-N-{1-[4-(trifluoromethoxy)phenyl]-1H-indazol-4-yl}benzamide]	5	112
